Laboratory results reported in patent US20220380371A1, “MLL1 INHIBITORS AND ANTI-CANCER AGENTS” (NOVARTIS AG, priority 2019, published 2022).
Read-outs that look alike come from different tables or passages of the source.

How the values were obtained:
[1] = target: wild type MLL1 four-member complex (MLL1-4C) (Homo sapiens, UniProt Q03164); assay: MLL1 LC-MS Assay; assay type: biochemical
Method: The compounds of the present disclosure were serially and separately diluted 3-fold in DMSO to obtain a total of eight or twelve concentrations. Then the test compounds at each concentration (120 nL of each) were transferred by Mosquito into white Proxiplate plus 384-well microplate (PerkinElmer). Solutions (6 μL) of 60 nM wild type MLL1 four-member complex (MLL1-4C) and 5 μM SAM in the reaction buffer (20 mM Tris-HCl, pH 8.0, 0.01% Tween 20, 1 mM DTT, 10 mM MgCl2, 0.01% BSA) were added to the wells that were then incubated with the test compound for 20 min. A 6 μL solution of 20 μM of the peptide substrate H3K4me0 (histone H3[1-21]-Biotin) in the reaction buffer was added to initiate each reaction. The final components in the reaction solution include 30 nM MLL1-4C, 2.5 μM SAM, and 10 μM H3K4me0 with varying concentration of the compounds. A positive control consisted of 30 nM MLL1-4C, 2.5 μM SAM, and 10 μM substrate in the absence of the test compound, and a negative control consisted of 2.5 μM SAM, and 10 μM substrate only. Each reaction was incubated at rt for 120 min, then stopped by addition of 3 μL per of quench solution (2.5% TFA with 320 nM d4-SAH). The reaction mixture was centrifuged (Eppendorf centrifuge 5810, Rotor A-4-62) for 2 min at 2000 rpm. The SAH production from the enzymatic assays were monitored by LC-MS/MS on an API 4000 triple quadrupole mass spec with Turbolon Spray (Applied Biosystem) coupled with Prominenece UFLC (Shimazu). The level of SAH production were then normalized based on the values coming from the positive and negative controls to give percent enzyme activities. The data were then fit to a dose response equation using the program Helios (Novartis) to get the IC50 values of the test compounds.

[2] = test system: H3K4me3 in MV4-11 cells; assay: MV4-11 H3K4me3 Cellular ELISA Assay; assay type: cell-based; settings: Homo sapiens, MV4-11, 48 h
Method: MV4-11 H3K4me3 Cellular ELISA Assay
MV4-11 (ATCC® CRL-9591™) was cultured with RPMI1640 medium (Thermo Fisher Scientific, cat #11875) supplemented with 10% FBS (Thermo Fisher Scientific, cat #10099141) and 50 U/ml Penicillin-Streptomycin (Thermo Fisher Scientific, cat #10378016) in humidified incubator at 37° C., 5% CO2.
200 nL compounds dissolved in DMSO were serially diluted at 1:3 ratio for 12 points starting from 10 mM and dispensed into each wells of cell culture plates (PDL-coated ViewPlate-384 Black, FTC, PerkinElmer, #6007710). 3,750 MV4-11 cells in 40 μL culture medium were seeded into each well and treated with desired concentration for 48 hours. After treatment, wash cells with cold phosphate based buffer (PBS, pH 7.4) and aspirate the remaining PBS buffer. Crude histone lysate was extracted by 40 μL 0.5M HCl for 1 hour in 4° C. following neutralization by adding 32 μL neutralization buffer (0.5M Sodium phosphate dibasic, pH ˜12.5, 1.25 mM Dithiothreitol, Promega #V3151, Protease Inhibitor Cocktail, Sigma #8340) for each well. 5 μL and 20 μL of histone lysate was loaded to ELISA plate (384 Well Plates, PE HB, White, 6005620) for detection of total H3 and H3K4me3, respectively. Shake the plates gently in 4° C. for overnight. After histone binding, plates were washed with 80 μL PBS/T (PBS with 0.05% Tween-20) and blocked with 50 μL 3% BSA diluted in PBS/T per well for 1 hour. Incubate wells with primary antibody for 1 hour at room temperature using anti-H3K4me3 (CST #9727) and anti-total H3 (CST #9715) diluted 1:2000 in 3% BSA. Plates were then washed with PBS/T for 3 times and incubated with horseradish peroxidase (HRP) conjugated secondary antibody (CST #7074, 1:5000) for 1 hour at room temperature. The abundance of H3K4me3 and total H3 were measured by ECL substrates chemiluminescence (Pierce, #34080) on a plate reader (PerkinElmer EnVison 2104 Mutilable Reader). Percentage inhibition was calculated against DMSO control after normalization of H3K4me3 signal to H3 signal for individual samples. The data were then fit to a dose response curve using GraphPad Prism for IC50 calculation.

[3] = test system: MV4-11 cells; assay: MV4-11 6-Day Cell Growth CTG (CellTiter-Glo) Assay; assay type: cell-based; settings: Homo sapiens, MV4-11, 144 h, MV4-11 cell growth CellTiter-Glo, 6 days
Method: MV4-11 6-Day Cell Growth CTG (CellTiter-Glo) Assay
Acute myeloid leukemia cell MV4-11 (ATCC® CRL-9591™) was cultured with RPMI 1640 medium (Thermo Fisher Scientific, cat #11875) supplemented with 10% FBS (Thermo Fisher Scientific, cat #10099141) in humidified incubator at 37° C., 5% CO2. To assess the effect of MLL1 inhibition on cell growth, the compound of the present invention was dissolved in DMSO and serially diluted at 1:3 for 12 points starting from 10 mM then 200 nL for the replicate of each dose per well was dispensed to Viewplate-384 Black (Perkin Elmer). Exponentially growing MV4-11 cells were seeded at the density of 300 cells per well in 40 μL to the plate, so the final compound working concentration starts from 50 μM. After 6 days, 40 μL CellTiter-Glo (Promega, cat #G7573) was added into the cell culture well and luminescence was read with Envision (Perkin Elmer) to determine the viable cells. The percentage inhibition was calculated against the samples treated with DMSO only and the data were used for dose response curve fitting in GraphPad Prism to get the IC50 of representative compound of present invention, which reflects the inhibition of MLL1 activity.

Row | Structure (SMILES) | IC50 ([1]; read-out: LCMS) [µM] | IC50 [2] [µM] | IC50 [3] [µM] | IC50 ([1]; read-out: MLL1 LCMS) [µM]
1 | Nc1ncnc2c1ncn2Cc1c(N2CC[C@](N)(C(=O)NC3CC3)C2)ccc(Cl)c1COC1CCOC1 (stereo partly drawn) [Example 79] | 0.05 to 0.1 | < 1.9 | < 2 | 
2 | Nc1ncnc2c1ncn2Cc1c(N2CC[C@](N)(C(=O)NC3CC3)C2)ccc(F)c1CN1CC[C@H](F)C1 [Example 68] | < 0.05 | < 1.9 | < 2 | 
3 | Nc1ncnc2c1ncn2Cc1c(N2CC[C@](N)(C(=O)NC3CC3)C2)ccc(F)c1CN1CCCCC1 [Example 46] | 0.05 to 0.1 | < 1.9 | < 2 | 
4 | CCSc1c(Cl)ccc(N2CC[C@](N)(C(=O)NC3CC3)C2)c1Cn1cnc2c(N)ncnc21 [Example 113] | < 0.05 | < 1.9 | < 2 | 
5 | Nc1ncnc2c1ncn2Cc1c(N2CC[C@](N)(C(=O)NC3CC3)C2)ccc(F)c1Br [Example 13] | < 0.05 | < 1.9 | < 2 | 
6 | C=Cc1cc(Cl)cc(N2CC[C@](N)(c3nc[nH]n3)C2)c1Cn1cnc2c(N)ncnc21 [Example 24] | < 0.05 | < 1.9 | < 2 | 
7 | CCc1cc(-c2cnccn2)cc(N2CC[C@](N)(C(=O)NC3CC3)C2)c1Cn1cnc2c(N)ncnc21 [Example 100, (R)-3-amino-1-(2-((6-amino-9H-purin-9-yl)methyl)-3-ethyl-5-(pyrazin-2-yl)phenyl)-N-cyclopropylpyrrolidine-3-carboxamide] | < 0.05 | < 1.9 | < 2 | 
8 | COC(=O)[C@@]1(N)CCN(c2cc(Cl)cc(C3CCC3)c2Cn2cnc3c(N)ncnc32)C1 [Example 29] | < 0.05 | < 1.9 | < 2 | 
9 | Nc1ncnc2c1ncn2Cc1c(N2CC[C@](N)(C(=O)NC3CC3)C2)ccc(F)c1C1CCCC1 [Example 158] |  | < 1.9 | < 2 | < 0.05
10 | Nc1ncnc2c1ncn2Cc1c(N2CCC(N)(C(=O)NC3CC3)C2)ccc(C(F)(F)F)c1Cl (stereo not drawn) [Example 160] |  | < 1.9 | < 2 | 0.05 to 0.1
11 | Nc1ncnc2c1ncn2Cc1c(N2CC[C@](N)(C(=O)NC3CC3)C2)cc(CN2CCOCC2)c(F)c1Cl [Example 103, (R)-3-amino-1-(2-((6-amino-9H-purin-9-yl)methyl)-3-chloro-4-fluoro-5-(morpholinomethyl)phenyl)-N-cyclopropylpyrrolidine-3-carboxamide] | < 0.05 | < 1.9 | < 2 | 
12 | Nc1ncnc2c1ncn2Cc1c(N2CC[C@](N)(C(=O)NC3CCOC3)C2)ccc(F)c1C(F)(F)F (stereo partly drawn) [Example 129] | < 0.05 | < 1.9 | < 2 | 
13 | COc1ccc(N2CC[C@](N)(C(=O)NC3CC3)C2)c(Cn2cnc3c(N)ncnc32)c1Br [Example 168] |  | < 1.9 | < 2 | 0.05 to 0.1
14 | Nc1ncnc2c1ncn2Cc1c(N2CC[C@](N)(C(=O)NC3CC3)C2)ccc(F)c1CNC1CC1 [Example 54] | > 0.1 | < 1.9 | < 2 | 
15 | Nc1ncnc2c1ncn2Cc1c(N2CC[C@](N)(C(=O)NC3CC3)C2)ccc(Cl)c1C1CC1 (stereo in doubt) [Example 97] | < 0.05 | > 3 | < 2 | 
16 | Nc1ncnc2c1ncn2Cc1c(N2CC[C@](N)(C(=O)NC3CC3)C2)cc(-c2cccs2)cc1C(F)(F)F [Example 94] | < 0.05 | < 1.9 | < 2 | 
17 | C=Cc1c(Cl)ccc(N2CC[C@](N)(C(=O)NC3CC3)C2)c1Cn1cnc2c(N)ncnc21 [Example 163] |  | < 1.9 | < 2 | < 0.05
18 | CCc1cc(-c2ccccc2F)cc(N2CC[C@](N)(C(=O)NC3CC3)C2)c1Cn1cnc2c(N)ncnc21 [Example 92, (R)-3-amino-1-(4-((6-amino-9H-purin-9-yl)methyl)-5-ethyl-2′-fluoro-[1,1′-biphenyl]-3-yl)-N-cyclopropylpyrrolidine-3-carboxamide] | < 0.05 | < 1.9 | < 2 | 
19 | C[C@@H](NC(=O)[C@@]1(N)CCN(c2ccc(F)c(C(F)(F)F)c2Cn2cnc3c(N)ncnc32)C1)C1CCOCC1 [Example 124] | 0.05 to 0.1 | < 1.9 | < 2 | 
20 | Nc1ncnc2c1ncn2Cc1c(N2CC[C@](N)(C(=O)NC3CC3)C2)ccc(F)c1CO [Example 76, (R)-3-amino-1-(2-((6-amino-9H-purin-9-yl)methyl)-4-fluoro-3-(hydroxymethyl)phenyl)-N-cyclopropylpyrrolidine-3-carboxamide] | 0.05 to 0.1 | < 1.9 | 2 to 3 | 
21 | COCc1c(Cl)ccc(N2CC[C@](N)(C(=O)NC3CC3)C2)c1Cn1cnc2c(N)ncnc21 [Example 78] | < 0.05 | < 1.9 | < 2 | 
22 | Nc1ncnc2c1ncn2Cc1c(N2CC[C@](N)(C(=O)NC3CC3)C2)ccc(F)c1C1CC1 [Example 8] | 0.05 to 0.1 | < 1.9 | < 2 | 
23 | Nc1ncnc2c1ncn2Cc1c(I)c(F)c2c(c1N1CC[C@](N)(C(=O)NC3CC3)C1)OCC2 [Example 111] | < 0.05 | 1.9 to 3 | 2 to 3 | 
24 | Nc1ncnc2c1ncn2Cc1c(Cl)cccc1N1CCC(N)(C(=O)NC2CC2)C1 (stereo not drawn) [Example 164] |  | < 1.9 | < 2 | 0.05 to 0.1
25 | Nc1ncnc2c1ncn2Cc1c(CC(F)(F)F)cc(Cl)cc1N1CC[C@](N)(C(=O)NC2CC2)C1 [Example 7] | 0.05 to 0.1 | < 1.9 | > 3 | 
26 | Nc1ncnc2c1ncn2Cc1c(N2CC[C@](N)(C(=O)N3CCn4nccc4C3)C2)ccc(F)c1C(F)(F)F [Example 137] | 0.05 to 0.1 | < 1.9 | 2 to 3 | 
27 | C=Cc1c(F)ccc(N2CCC(N)(C(=O)NC3CC3)C2)c1Cn1cnc2c(N)ncnc21 (stereo not drawn) [Example 9] | > 0.1 | < 1.9 | < 2 | 
28 | Nc1ncnc2c1ncn2Cc1c(N2CC[C@](N)(C(=O)NC3CC3)C2)ccc(F)c1C(O)C(F)(F)F (single isomer, unassigned) [Example 82] | > 0.1 | < 1.9 | 2 to 3 | 
29 | CCN(CC)Cc1c(F)ccc(N2CC[C@](N)(C(=O)NC3CC3)C2)c1Cn1cnc2c(N)ncnc21 [Example 67] | 0.05 to 0.1 | < 1.9 | < 2 | 
